From patent US20100311714A1, “1H-IMIDAZO[4,5-c]QUINOLINONE COMPOUNDS” (priority 2009, published 2010)
Read-outs that look alike come from different tables or passages of the source.

Tests used:
PI3K delta = target: T1, PI3K delta (Homo sapiens, UniProt O00329); assay: PI3K delta kinase assay (Kinase-Glo luminescence); format: biochemical
T1 construct: for the full-length p110-d subunit are generated and fused by overlapping PCR; His tag (C); made in house; host or cells: baculovirus BV1060; Tn5 (Trichoplusia ni) or TiniPro insect cells
In short: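 IC50s derive from 8-point inhibition curves fitted to a 4-parameter logistic model. Reaction: 10 nM purified p110δ/p85 iSH2 fusion, 1 μM ATP, 10 μg/mL PI substrate, pH 7.5 Tris buffer with MgCl2, NaCl, CHAPS and DTT, run 60 min at room temperature; remaining ATP read by Kinase-Glo luminescence.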

mTOR = target: T2, mTOR (Homo sapiens, UniProt P42345); assay: Biochemical assay for m-TOR by TR-FRET
T2 construct: purchased Invitrogen Corporation (Carlsbad/Calif., USA) PV4753
In short: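 mTOR (0.5 nM) phosphorylates GFP-4EBP1 (400 nM) with 8 μM ATP at rt in 50 mM HEPES pH 7.5, 10 mM MnCl2, 50 mM NaCl, 1 mM EGTA, 1 mM DTT; compounds 0.003–10 μM final. EDTA stop with Tb-anti-p4EBP1[pT46] antibody (0.5 nM); TR-FRET read after 15 min against no-enzyme and vehicle controls.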

T2 sequence (P42345 1360-2549 limits assumed): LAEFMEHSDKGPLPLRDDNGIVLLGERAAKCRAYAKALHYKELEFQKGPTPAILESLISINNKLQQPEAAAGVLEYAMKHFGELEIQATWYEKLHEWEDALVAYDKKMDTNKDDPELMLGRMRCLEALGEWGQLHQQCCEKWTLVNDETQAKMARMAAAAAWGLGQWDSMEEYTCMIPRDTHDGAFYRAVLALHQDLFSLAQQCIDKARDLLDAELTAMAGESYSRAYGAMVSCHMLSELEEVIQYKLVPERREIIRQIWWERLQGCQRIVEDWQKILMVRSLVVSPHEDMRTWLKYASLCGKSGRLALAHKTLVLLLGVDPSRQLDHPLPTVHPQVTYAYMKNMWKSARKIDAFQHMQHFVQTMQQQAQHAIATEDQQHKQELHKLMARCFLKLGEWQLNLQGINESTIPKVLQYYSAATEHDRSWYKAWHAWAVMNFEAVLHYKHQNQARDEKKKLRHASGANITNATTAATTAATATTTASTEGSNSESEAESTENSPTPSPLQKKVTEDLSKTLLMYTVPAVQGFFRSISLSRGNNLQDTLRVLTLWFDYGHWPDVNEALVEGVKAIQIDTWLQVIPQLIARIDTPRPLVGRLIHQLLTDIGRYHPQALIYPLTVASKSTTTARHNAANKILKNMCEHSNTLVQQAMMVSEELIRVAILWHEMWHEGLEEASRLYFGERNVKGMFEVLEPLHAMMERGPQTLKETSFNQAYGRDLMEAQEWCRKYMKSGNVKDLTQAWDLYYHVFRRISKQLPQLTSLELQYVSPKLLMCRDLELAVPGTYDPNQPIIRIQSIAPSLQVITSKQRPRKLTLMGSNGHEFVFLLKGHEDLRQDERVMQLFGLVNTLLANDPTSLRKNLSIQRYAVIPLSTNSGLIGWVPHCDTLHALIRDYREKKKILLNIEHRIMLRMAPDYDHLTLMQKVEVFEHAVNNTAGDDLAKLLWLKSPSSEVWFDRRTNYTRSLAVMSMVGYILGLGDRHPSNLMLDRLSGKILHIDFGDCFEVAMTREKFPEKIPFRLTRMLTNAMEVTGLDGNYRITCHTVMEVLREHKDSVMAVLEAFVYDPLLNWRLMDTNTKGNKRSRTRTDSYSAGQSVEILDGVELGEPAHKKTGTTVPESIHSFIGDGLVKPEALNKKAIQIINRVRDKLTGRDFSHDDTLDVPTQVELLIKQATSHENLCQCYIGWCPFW
T1 sequence (O00329 with tags, fused parts or gaps limits assumed): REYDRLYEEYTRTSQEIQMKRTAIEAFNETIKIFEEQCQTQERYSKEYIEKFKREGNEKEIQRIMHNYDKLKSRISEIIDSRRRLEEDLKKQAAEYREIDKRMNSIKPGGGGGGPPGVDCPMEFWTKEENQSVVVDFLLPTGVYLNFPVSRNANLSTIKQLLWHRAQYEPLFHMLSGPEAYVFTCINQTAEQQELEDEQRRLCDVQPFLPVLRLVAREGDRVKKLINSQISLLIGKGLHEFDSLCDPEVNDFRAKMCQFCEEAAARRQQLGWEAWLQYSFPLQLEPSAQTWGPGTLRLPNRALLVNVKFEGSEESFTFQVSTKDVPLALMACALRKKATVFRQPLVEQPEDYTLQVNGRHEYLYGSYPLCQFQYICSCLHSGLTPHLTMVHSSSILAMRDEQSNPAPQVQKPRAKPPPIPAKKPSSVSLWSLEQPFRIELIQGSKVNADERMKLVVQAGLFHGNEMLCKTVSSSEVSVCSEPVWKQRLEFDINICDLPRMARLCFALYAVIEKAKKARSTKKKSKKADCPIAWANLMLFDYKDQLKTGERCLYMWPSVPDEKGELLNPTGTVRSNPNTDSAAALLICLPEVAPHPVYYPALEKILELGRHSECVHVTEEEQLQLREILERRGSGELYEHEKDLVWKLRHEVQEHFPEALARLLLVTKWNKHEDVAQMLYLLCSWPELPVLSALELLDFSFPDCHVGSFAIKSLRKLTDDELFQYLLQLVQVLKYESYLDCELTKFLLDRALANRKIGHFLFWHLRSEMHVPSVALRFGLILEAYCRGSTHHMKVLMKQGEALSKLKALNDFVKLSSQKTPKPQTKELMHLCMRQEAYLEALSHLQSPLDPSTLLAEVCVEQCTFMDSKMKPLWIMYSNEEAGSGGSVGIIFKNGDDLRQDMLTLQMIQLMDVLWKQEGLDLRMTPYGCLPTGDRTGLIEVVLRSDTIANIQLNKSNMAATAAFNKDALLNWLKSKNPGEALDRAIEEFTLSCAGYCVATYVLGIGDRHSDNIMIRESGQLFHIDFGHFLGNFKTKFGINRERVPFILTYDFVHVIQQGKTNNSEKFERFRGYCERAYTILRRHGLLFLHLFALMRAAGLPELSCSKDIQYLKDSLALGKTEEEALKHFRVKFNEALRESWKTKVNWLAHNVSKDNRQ

| Compound | IC50 (PI3K delta; read-out: EPK_PI3Kdelta/IC50) [nM] | IC50 (mTOR; read-out: EPK_mTOR/IC50) [nM] | IC50 (PI3K delta; read-out: PI3Kdelta/IC50) [nM] | IC50 (mTOR; read-out: mTOR/IC50) [nM] |
| --- | --- | --- | --- | --- |
| COc1cc(-c2ccc3ncc4c(c3c2)n(-c2ccc(N3CCC(OC)C3)nc2C)c(=O)n4C)cnc1CO (stereo not shown) [Example 28.3, 8-(6-Hydroxymethyl-5-methoxy-pyridin-3-yl)-1-[6-(3-methoxy-pyrrolidin-1-yl)-2-methyl-pyridin-3-yl]-3-methyl-1,3-dihydro-imidazo[4,5-c]quinolin-2-one] | 42 | 172 |  |  |
| Cc1nc(N2CCC(O)C2)ccc1-n1c(=O)n(C)c2cnc3ccc(-c4cnc(N)c(C(F)(F)F)c4)cc3c21 (stereo not shown) [Example 27.3, 8-(6-Amino-5-trifluoromethyl-pyridin-3-yl)-1-[6-(3-hydroxy-pyrrolidin-1-yl)-2-methyl-pyridin-3-yl]-3-methyl-1,3-dihydro-imidazo[4,5-c]quinolin-2-one] | < 3 | 7 |  |  |
| COc1cc(-c2ccc3ncc4c(c3c2)n(-c2ccc(N3CC[C@H](O)C3)nc2C)c(=O)n4C)cnc1CO [Example 32.7, 8-(6-Hydroxymethyl-5-methoxy-pyridin-3-yl)-1-[6-((S)-3-hydroxy-pyrrolidin-1-yl)-2-methyl-pyridin-3-yl]-3-methyl-1,3-dihydro-imidazo[4,5-c]quinolin-2-one] | 35 | 50 |  |  |
| CCNc1cc(-c2ccc3ncc4c(c3c2)n(-c2ccc(N(C)CCO)nc2C)c(=O)n4C)cnc1CO [Example 26.3, 8-(5-Ethylamino-6-hydroxymethyl-pyridin-3-yl)-1-{6-[(2-hydroxy-ethyl)-methyl-amino]-2-methyl-pyridin-3-yl}-3-methyl-1,3-dihydro-imidazo[4,5-c]quinolin-2-one] | 287 | 9 |  |  |
| COc1cc(-c2ccc3ncc4c(c3c2)n(-c2ccc(N3CC(F)(F)C3)nc2C)c(=O)n4C)cnc1CO [Example 24.4, 1-[6-(3,3-Difluoro-azetidin-1-yl)-2-methyl-pyridin-3-yl]-8-(6-hydroxymethyl-5-methoxy-pyridin-3-yl)-3-methyl-1,3-dihydro-imidazo[4,5-c]quinolin-2-one] | 248 | 449 |  |  |
| COc1ccc(-n2c(=O)n(C)c3cnc4ccc(-c5cnc(CO)c(OC)c5)cc4c32)c(OC)n1 [Example 8.14, 1-(2,6-Dimethoxy-pyridin-3-yl)-8-(6-hydroxymethyl-5-methoxy-pyridin-3-yl)-3-methyl-1,3-dihydro-imidazo[4,5-c]quinolin-2-one] | 311 | 115 |  |  |
| CCNc1cc(-c2ccc3ncc4c(c3c2)n(-c2ccc(N3CC(F)(F)C(F)(F)C3)nc2C)c(=O)n4C)cnc1CO [Example 35.2, 8-(5-Ethylamino-6-hydroxymethyl-pyridin-3-yl)-3-methyl-1-[2-methyl-6-(3,3,4,4-tetrafluoro-pyrrolidin-1-yl)-pyridin-3-yl]-1,3-dihydro-imidazo[4,5-c]quinolin-2-one] | 10 | 45 |  |  |
| COCc1ncc(-c2ccc3ncc4c(c3c2)n(-c2ccc(F)nc2C)c(=O)n4C)cc1OC [Example 7.7, 1-(6-Fluoro-2-methyl-pyridin-3-yl)-8-(5-methoxy-6-methoxymethyl-pyridin-3-yl)-3-methyl-1,3-dihydro-imidazo[4,5-c]quinolin-2-one] | 79 | 447 |  |  |
| CNc1ncc(-c2ccc3ncc4c(c3c2)n(-c2ccc(N3CC[C@@H](O)C3)nc2C)c(=O)n4C)cn1 [Example 34.1, 1-[6-((R)-3-Hydroxy-pyrrolidin-1-yl)-2-methyl-pyridin-3-yl]-3-methyl-8-(2-methylamino-pyrimidin-5-yl)-1,3-dihydro-imidazo[4,5-c]quinolin-2-one] | 42 | 28 |  |  |
| Cc1nc(F)ccc1-n1c(=O)n(C)c2cnc3ccc(-c4cncc(N5CCC5)c4)cc3c21 [Example 7.6, 8-(5-Azetidin-1-yl-pyridin-3-yl)-1-(6-fluoro-2-methyl-pyridin-3-yl)-3-methyl-1,3-dihydro-imidazo[4,5-c]quinolin-2-one] | 148 | 59 |  |  |
| Cc1nc(N2CCC(O)C2)ccc1-n1c(=O)n(C)c2cnc3ccc(-c4cncc(C(C)(C)O)c4)cc3c21 (stereo not shown) [Example 27.5, 8-[5-(1-Hydroxy-1-methyl-ethyl)-pyridin-3-yl]-1-[6-(3-hydroxy-pyrrolidin-1-yl)-2-methyl-pyridin-3-yl]-3-methyl-1,3-dihydro-imidazo[4,5-c]quinolin-2-one] | 148 | 15 |  |  |
| COc1cc(-c2ccc3ncc4c(c3c2)n(-c2ccc(N)nc2C)c(=O)n4C)cnc1CO [Example 30.1, 1-(6-Amino-2-methyl-pyridin-3-yl)-8-(6-hydroxymethyl-5-methoxy-pyridin-3-yl)-3-methyl-1,3-dihydro-imidazo[4,5-c]quinolin-2-one] | 118 | 118 |  |  |
| COc1cc(-c2ccc3ncc4c(c3c2)n(-c2ccc(F)nc2C)c(=O)n4C)cnc1CO [Example 7.10, 1-(6-Fluoro-2-methyl-pyridin-3-yl)-8-(6-hydroxymethyl-5-methoxy-pyridin-3-yl)-3-methyl-1,3-dihydro-imidazo[4,5-c]quinolin-2-one] | 186 | 301 |  |  |
| COCc1ncc(-c2ccc3ncc4c(c3c2)n(-c2cccnc2C)c(=O)n4C)cc1OC [Example 2.30, 8-(5-Methoxy-6-methoxymethyl-pyridin-3-yl)-3-methyl-1-(2-methyl-pyridin-3-yl)-1,3-dihydro-imidazo[4,5-c]quinolin-2-one] | 53 | 77 |  |  |
| Cn1c(=O)n(-c2cccnc2F)c2c3cc(-c4cnc5[nH]ccc5c4)ccc3ncc21 [Example 6.3, 1-(2-Fluoro-pyridin-3-yl)-3-methyl-8-(1H-pyrrolo[2,3-b]pyridin-5-yl)-1,3-dihydro-imidazo[4,5-c]quinolin-2-one] |  |  | 78 | 47 |
| COc1ccc(-n2c(=O)n(C)c3cnc4ccc(-c5cnc(C(OC)OC)c(OC)c5)cc4c32)c(OC)n1 [Example 8.13, 8-(6-Dimethoxymethyl-5-methoxy-pyridin-3-yl)-1-(2,6-dimethoxy-pyridin-3-yl)-3-methyl-1,3-dihydro-imidazo[4,5-c]quinolin-2-one] | 167 | 86 |  |  |
| Cc1nc(N2CC(O)C2)ccc1-n1c(=O)n(C)c2cnc3ccc(-c4cncc(C(C)(C)O)c4)cc3c21 [Example 29.1, 1-[6-(3-Hydroxy-azetidin-1-yl)-2-methyl-pyridin-3-yl]-8-[5-(1-hydroxy-1-methyl-ethyl)-pyridin-3-yl]-3-methyl-1,3-dihydro-imidazo[4,5-c]quinolin-2-one] | 19 | 5 |  |  |
| COc1ccc(-n2c(=O)n(C)c3cnc4ccc(-c5cncc(N6CCC6)c5)cc4c32)c(OC)n1 [Example 8.11, 8-(5-Azetidin-1-yl-pyridin-3-yl)-1-(2,6-dimethoxy-pyridin-3-yl)-3-methyl-1,3-dihydro-imidazo[4,5-c]quinolin-2-one] | 126 | 5 |  |  |
| CNc1ncc(-c2ccc3ncc4c(c3c2)n(-c2ccc(N3CCC(OC)C3)nc2C)c(=O)n4C)cn1 (stereo not shown) [Example 28.2, 1-[6-(3-Methoxy-pyrrolidin-1-yl)-2-methyl-pyridin-3-yl]-3-methyl-8-(2-methylamino-pyrimidin-5-yl)-1,3-dihydro-imidazo[4,5-c]quinolin-2-one] | 159 | 8 |  |  |
| COc1cc(-c2ccc3ncc4c(c3c2)n(-c2ccc(N3CCCC3)nc2C)c(=O)n4C)cnc1CO [Example 25.4, 8-(6-Hydroxymethyl-5-methoxy-pyridin-3-yl)-3-methyl-1-(2-methyl-6-pyrrolidin-1-yl-pyridin-3-yl)-1,3-dihydro-imidazo[4,5-c]quinolin-2-one] | 272 | 655 |  |  |
| CCNc1cc(-c2ccc3ncc4c(c3c2)n(-c2ccc(N3CCCC3)nc2C)c(=O)n4C)cnc1CO [Example 25.5, 8-(5-Ethylamino-6-hydroxymethyl-pyridin-3-yl)-3-methyl-1-(2-methyl-6-pyrrolidin-1-yl-pyridin-3-yl)-1,3-dihydro-imidazo[4,5-c]quinolin-2-one] | 33 | 22 |  |  |
| CNc1ncc(-c2ccc3ncc4c(c3c2)n(-c2ccc(N3CC[C@H](O)C3)nc2C)c(=O)n4C)cc1Cl [Example 32.4, 8-(5-Chloro-6-methylamino-pyridin-3-yl)-1-[6-((S)-3-hydroxy-pyrrolidin-1-yl)-2-methyl-pyridin-3-yl]-3-methyl-1,3-dihydro-imidazo[4,5-c]quinolin-2-one] | 5 | 7 |  |  |
| CCOc1ccc(-c2ccc3ncc4c(c3c2)n(-c2ccc(N3CCC(O)C3)nc2C)c(=O)n4C)cn1 (stereo not shown) [Example 27.4, 8-(6-Ethoxy-pyridin-3-yl)-1-[6-(3-hydroxy-pyrrolidin-1-yl)-2-methyl-pyridin-3-yl]-3-methyl-1,3-dihydro-imidazo[4,5-c]quinolin-2-one] | 193 | 23 |  |  |
| Cc1ncccc1-n1c(=O)n(C)c2cnc3ccc(-c4cnc5[nH]ccc5c4)cc3c21 [Example 2.8, 3-Methyl-1-(2-methyl-pyridin-3-yl)-8-(1H-pyrrolo[2,3-b]pyridin-5-yl)-1,3-dihydro-imidazo[4,5-c]quinolin-2-one] |  |  | 35 |  |
| CNC(=O)c1ccc(-c2ccc3ncc4c(c3c2)n(-c2cccnc2C)c(=O)n4C)cc1 [Example 2.4, N-Methyl-4-[3-methyl-1-(2-methyl-pyridin-3-yl)-2-oxo-2,3-dihydro-1H-imidazo[4,5-c]quinolin-8-yl]-benzamide] |  |  | 221 | 12 |
